Laboratory results taken from the NIST ThermoML archive (doi:10.1021/je034097r).

Settings: Capillary rise

COC [dimethyl ether]
Settings	surface tension liquid-gas [mN/m]
213.12 K	24.52
223.11 K	22.95
228.19 K	22.26
233.31 K	21.44
238.15 K	20.75
243.12 K	19.81
248.12 K	19.3
253.09 K	18.54
258.11 K	17.71
263.12 K	16.99
268.08 K	16.27
273.08 K	15.43
278.06 K	14.6
283.07 K	13.97
288.04 K	13.16
293.09 K	12.66
298.08 K	11.73
303.2 K	11
308.12 K	10.22
313.12 K	9.557
318.18 K	9.089
323.18 K	8.428
328.14 K	7.64
333.14 K	7.045
338.09 K	6.368
343.13 K	5.717
348.07 K	5.148
353.11 K	4.435
358.11 K	3.94
363.1 K	3.315
368.04 K	2.779
